Measured values published in ChEMBL document CHEMBL5370644, “Subplenones A-J: Dimeric Xanthones with Antibacterial Activity from the Endophytic Fungus Subplenodomus sp. CPCC 401465” (2023).
In brackets after ≈: the same amount, converted by molar mass.

Legend:
Assay type in all cases: functional
Settings in all cases: time 16-20 hrs
Staphylococcus aureus [1] = experiment: Antibacterial activity against methicillin-resistant Staphylococcus aureus ATCC 43300 assessed as bacterial growth inhibition incubated for 16 to 20 hrs by CLSI based two-fold serial dilution method
Staphylococcus aureus [2] = experiment: Antibacterial activity against methicillin-resistant Staphylococcus aureus ATCC 700698 assessed as bacterial growth inhibition incubated for 16 to 20 hrs by CLSI based two-fold serial dilution method
Staphylococcus aureus [3] = experiment: Antibacterial activity against methicillin-sensitive Staphylococcus aureus ATCC 29213 assessed as bacterial growth inhibition incubated for 16 to 20 hrs by CLSI based two-fold serial dilution method
Enterococcus faecalis [4] = experiment: Antibacterial activity against vancomycin-resistant Enterococcus faecalis ATCC 51299 assessed as bacterial growth inhibition incubated for 16 to 20 hrs by CLSI based two-fold serial dilution method
Enterococcus faecium = experiment: Antibacterial activity against vancomycin-resistant Enterococcus faecium ATCC 700221 assessed as bacterial growth inhibition incubated for 16 to 20 hrs by CLSI based two-fold serial dilution method
Enterococcus faecalis [5] = experiment: Antibacterial activity against vancomycin-sensitive Enterococcus faecalis ATCC 29212 assessed as bacterial growth inhibition incubated for 16 to 20 hrs by CLSI based two-fold serial dilution method
[6] = system: Staphylococcus epidermidis; experiment: Antibacterial activity against methicillin-sensitive Staphylococcus epidermidis ATCC 12228 assessed as bacterial growth inhibition incubated for 16 to 20 hrs by CLSI based two-fold serial dilution method

Compound | MIC (Staphylococcus aureus [1]) [µg/mL] | MIC (Staphylococcus aureus [2]) [µg/mL] | MIC (Staphylococcus aureus [3]) [µg/mL] | MIC (Enterococcus faecalis [4]) [µg/mL] | MIC (Enterococcus faecium) [µg/mL] | MIC (Enterococcus faecalis [5]) [µg/mL] | MIC [6] [µg/mL]
C[C@H]1COc2c(N3CCN(C)CC3)c(F)cc3c(=O)c(C(=O)O)cn1c23 [LEVOFLOXACIN ANHYDROUS] | 0.125 (≈ 0.346 µM) | 0.125 (≈ 0.346 µM) | 0.125 (≈ 0.346 µM) | 1 (≈ 2.77 µM) | > 64 | 1 (≈ 2.77 µM) | 0.25 (≈ 0.692 µM)
CC1=CC(O)=C2C(=O)c3c(ccc(-c4ccc5c(c4O)C(=O)[C@@]4(O)C(=O)C=C(C)[C@H](O)[C@]4(C)O5)c3O)O[C@]2(C)[C@H]1O | 4 (≈ 7.11 µM) | 4 (≈ 7.11 µM) | 4 (≈ 7.11 µM) | 16 (≈ 28.4 µM) | 4 (≈ 7.11 µM) | 16 (≈ 28.4 µM) | 0.5 (≈ 0.889 µM)
CC1=CC(O)=C2C(=O)c3c(ccc(-c4ccc5c(c4O)C(=O)C4=C(O)C=C(C)[C@H](O)[C@]4(C)O5)c3O)O[C@]2(C)C1=O | 0.5 (≈ 0.918 µM) | 0.25 (≈ 0.459 µM) | 0.5 (≈ 0.918 µM) | 2 (≈ 3.67 µM) | 0.5 (≈ 0.918 µM) | 2 (≈ 3.67 µM) | ≤ 0.125
CC1=CC(O)=C2C(=O)c3c(ccc(-c4ccc5c(c4O)C(=O)C4=C(O)C=C(C)[C@H](O)[C@]4(C)O5)c3O)O[C@@]2(C)[C@H]1O | 4 (≈ 7.32 µM) | 2 (≈ 3.66 µM) | 2 (≈ 3.66 µM) | 128 (≈ 234 µM) | 16 (≈ 29.3 µM) | 128 (≈ 234 µM) | 1 (≈ 1.83 µM)
CC1=CC(O)=C2C(=O)c3c(ccc(-c4ccc5c(c4O)C(=O)C4=C(O)C=C(C)C(=O)[C@]4(C)O5)c3O)O[C@@]2(C)C1=O | 1 (≈ 1.84 µM) | 0.5 (≈ 0.922 µM) | 1 (≈ 1.84 µM) | 4 (≈ 7.37 µM) | 1 (≈ 1.84 µM) | 4 (≈ 7.37 µM) | 0.25 (≈ 0.461 µM)
CC1=CC(O)=C2C(=O)c3c(O)ccc(-c4ccc5c(c4O)C(=O)C4=C(O)C=C(C)[C@H](O)[C@]4(C)O5)c3O[C@]2(C)C1=O | 1 (≈ 1.84 µM) | 0.5 (≈ 0.918 µM) | 1 (≈ 1.84 µM) | 4 (≈ 7.35 µM) | 1 (≈ 1.84 µM) | 4 (≈ 7.35 µM) | 0.25 (≈ 0.459 µM)
CC1=C[C@H](O)[C@]2(O)C(=O)c3c(ccc(-c4ccc5c(c4O)C(=O)C4=C(O)C[C@@H](C)[C@H](O)[C@@]4(C)O5)c3O)O[C@@]2(C)[C@H]1O | 0.5 (≈ 0.883 µM) | 0.5 (≈ 0.883 µM) | 0.5 (≈ 0.883 µM) | 4 (≈ 7.06 µM) | 1 (≈ 1.77 µM) | 2 (≈ 3.53 µM) | ≤ 0.125
CC1=CC(O)=C2C(=O)c3c(ccc(-c4ccc5c(c4O)C(=O)C4=C(O)C[C@@H](C)[C@H](O)[C@@]4(C)O5)c3O)O[C@@]2(C)[C@H]1O | 0.5 (≈ 0.912 µM) | 0.25 (≈ 0.456 µM) | 0.5 (≈ 0.912 µM) | 4 (≈ 7.29 µM) | 1 (≈ 1.82 µM) | 2 (≈ 3.65 µM) | ≤ 0.125
CC1=CC(O)=C2C(=O)c3c(ccc(-c4ccc5c(c4O)C(=O)C4=C(O)C=C(C)[C@H](O)[C@]4(C)O5)c3O)O[C@@]2(C)C1=O | 1 (≈ 1.84 µM) | 0.5 (≈ 0.918 µM) | 1 (≈ 1.84 µM) | 4 (≈ 7.35 µM) | 2 (≈ 3.67 µM) | 4 (≈ 7.35 µM) | ≤ 0.125
CC1=CC(O)=C2C(=O)c3c(O)ccc(-c4ccc5c(c4O)C(=O)C4=C(O)C=C(C)[C@H](O)[C@]4(C)O5)c3O[C@@]2(C)C1=O | 0.5 (≈ 0.918 µM) | 0.25 (≈ 0.459 µM) | 0.5 (≈ 0.918 µM) | 2 (≈ 3.67 µM) | 0.5 (≈ 0.918 µM) | 2 (≈ 3.67 µM) | ≤ 0.125
CC1=CC(O)=C2C(=O)c3c(ccc(-c4ccc(O)c(C(=O)c5c(O)cc(C)c(O)c5C)c4O)c3O)O[C@@]2(C)[C@H]1O | 1 (≈ 1.83 µM) | 0.5 (≈ 0.915 µM) | 1 (≈ 1.83 µM) | 4 (≈ 7.32 µM) | 1 (≈ 1.83 µM) | 2 (≈ 3.66 µM) | ≤ 0.125
